From ChEMBL document CHEMBL3098005, “Structure activity relationships of fused bicyclic and urea derivatives of spirocyclic compounds as potent CCR1 antagonists” (Bioorg Med Chem Lett, 2014)

Legend:
[1] = Permeability across human Caco2 cells; assay type: ADME, cell-based; conditions: Caco-2, read-out: permeability
Hepatocyte = assay: Metabolic stability in human hepatocytes measured per 10^6 cells; assay type: ADME, cell-based
[2] = Metabolic stability in human liver microsomes; assay type: ADME; conditions: read-out: Stability
[3] = target: T1, C-C chemokine receptor type 1 (Rattus norvegicus, UniProt A6I4C9); assay: Displacement of [125I]MIP-1alpha from rat CCR1
T1 sequence (A6I4C9 whole entry): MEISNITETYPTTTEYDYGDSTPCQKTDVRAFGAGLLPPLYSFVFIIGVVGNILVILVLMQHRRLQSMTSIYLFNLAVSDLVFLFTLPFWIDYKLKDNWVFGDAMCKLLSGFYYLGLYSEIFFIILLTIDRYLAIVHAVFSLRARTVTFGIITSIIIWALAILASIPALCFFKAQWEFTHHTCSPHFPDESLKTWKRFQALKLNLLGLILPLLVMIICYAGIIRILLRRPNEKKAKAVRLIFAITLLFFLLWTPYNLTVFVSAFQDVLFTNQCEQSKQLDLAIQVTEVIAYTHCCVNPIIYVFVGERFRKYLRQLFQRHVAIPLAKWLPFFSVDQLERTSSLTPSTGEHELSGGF

[4] = target: T2, C-C chemokine receptor type 1 (Homo sapiens, UniProt P32246); assay: Displacement of [125I]MIP-1alpha from human recombinant CCR1 expressed in HEK293 cell membranes after 1.5 hrs by microbeta counting analysis
T2 sequence (P32246 whole entry): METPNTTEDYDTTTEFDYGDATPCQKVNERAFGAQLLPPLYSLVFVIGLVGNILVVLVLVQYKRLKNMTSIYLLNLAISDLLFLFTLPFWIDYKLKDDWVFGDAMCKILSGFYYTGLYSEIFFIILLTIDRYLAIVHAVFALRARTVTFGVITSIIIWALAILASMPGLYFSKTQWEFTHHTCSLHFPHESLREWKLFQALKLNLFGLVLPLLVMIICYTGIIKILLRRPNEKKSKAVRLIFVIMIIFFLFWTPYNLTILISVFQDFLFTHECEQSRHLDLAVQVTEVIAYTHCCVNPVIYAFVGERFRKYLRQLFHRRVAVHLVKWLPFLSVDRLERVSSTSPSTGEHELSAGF

[5] = target: Voltage-gated inwardly rectifying potassium channel KCNH2 (Homo sapiens, UniProt Q12809); assay: Inhibition of human ERG expressed in HEK cells after 3 hrs by ion flux electrophysiology
Chain of Voltage-gated inwardly rectifying potassium channel KCNH2 (Q12809 whole entry): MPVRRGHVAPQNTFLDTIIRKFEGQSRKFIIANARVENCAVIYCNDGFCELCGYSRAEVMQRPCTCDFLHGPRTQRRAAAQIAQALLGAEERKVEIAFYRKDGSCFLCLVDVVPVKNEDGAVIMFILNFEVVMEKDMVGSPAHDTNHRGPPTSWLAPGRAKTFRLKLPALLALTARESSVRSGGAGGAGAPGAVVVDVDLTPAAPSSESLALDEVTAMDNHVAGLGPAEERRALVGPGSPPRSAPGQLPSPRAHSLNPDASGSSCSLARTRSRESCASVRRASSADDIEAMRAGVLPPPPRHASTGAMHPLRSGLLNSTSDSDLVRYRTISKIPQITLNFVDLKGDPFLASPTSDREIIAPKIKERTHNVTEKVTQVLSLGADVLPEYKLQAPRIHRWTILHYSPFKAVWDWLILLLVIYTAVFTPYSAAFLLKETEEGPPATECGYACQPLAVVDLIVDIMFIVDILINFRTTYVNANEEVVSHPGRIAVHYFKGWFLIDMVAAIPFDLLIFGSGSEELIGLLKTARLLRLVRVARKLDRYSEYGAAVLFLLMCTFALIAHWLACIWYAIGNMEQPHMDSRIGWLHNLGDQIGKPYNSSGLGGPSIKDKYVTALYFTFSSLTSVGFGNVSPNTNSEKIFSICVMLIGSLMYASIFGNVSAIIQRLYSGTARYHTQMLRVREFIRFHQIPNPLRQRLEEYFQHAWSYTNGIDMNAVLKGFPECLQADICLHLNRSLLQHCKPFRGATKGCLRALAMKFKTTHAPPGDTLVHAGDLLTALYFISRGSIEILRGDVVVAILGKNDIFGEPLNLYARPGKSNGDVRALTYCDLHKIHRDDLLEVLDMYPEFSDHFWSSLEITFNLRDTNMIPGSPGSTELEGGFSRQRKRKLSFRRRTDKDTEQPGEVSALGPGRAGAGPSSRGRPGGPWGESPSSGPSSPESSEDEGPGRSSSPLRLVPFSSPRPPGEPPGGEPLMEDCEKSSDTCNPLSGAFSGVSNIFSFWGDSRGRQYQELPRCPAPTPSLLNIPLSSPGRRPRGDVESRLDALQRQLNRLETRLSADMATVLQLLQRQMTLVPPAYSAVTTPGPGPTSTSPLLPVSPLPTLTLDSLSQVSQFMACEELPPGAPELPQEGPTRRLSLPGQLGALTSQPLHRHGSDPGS

| SMILES | Papp [1] [×10⁻⁶ cm/s] | Stability (Hepatocyte) | microsomal CLint [2] [µL/min/mg] | IC50 ([3]; read-out: IC50) [nM] | IC50 [4] [nM] | IC50 [5] [nM] | IC50 [3] |
| --- | --- | --- | --- | --- | --- | --- | --- |
| NC(=O)Nc1ccc(F)cc1OC[C@@H](O)CN1CCC2(CC1)Cc1cc(Cl)ccc1O2 | 16 | 5.7 µL/min | 17 | 1620 | 5.6 |  |  |
| O=C(Nc1ccc(O)cc1OC[C@@H](O)CN1CCC2(CC1)Cc1cc(F)ccc1O2)NC1CC1 | 0.93 | 5.3 µL/min | 15.1 | 101 | 0.63 | 3800 |  |
| O=c1ccc2cccc(OC[C@@H](O)CN3CCC4(CC3)Cc3cc(Cl)ccc3O4)c2[nH]1 |  | Unstable | 12.5 |  | 37 |  | Not Active |
| O=C(Nc1cc(Cl)c(O)cc1OC[C@@H](O)CN1CCC2(CC1)Cc1cc(Cl)ccc1O2)NC1CC1 |  | 20.7 µL/min | < 11.4 | 16 | 1.8 | 1000 |  |
| COc1ccc(NC(=O)NC2CC2)c(OC[C@@H](O)CN2CCC3(CC2)Cc2cc(Cl)ccc2O3)c1 |  |  | 114 | 50 | 1.8 |  |  |
| Nc1nc2c(OC[C@@H](O)CN3CCC4(CC3)Cc3cc(Cl)ccc3O4)cccc2s1 |  |  |  |  | 1300 |  | Not Active |
| O=c1[nH]c(=O)c2cccc(OC[C@@H](O)CN3CCC4(CC3)Cc3cc(Cl)ccc3O4)c2[nH]1 |  |  |  | > 6000 | 560 |  |  |
| N[C@H](COc1cccc2c1NC(=O)CO2)CN1CCC2(CC1)Cc1cc(F)ccc1O2 |  |  | < 10 |  | 79 |  | Not Active |
| O=C1COc2cccc(OC[C@@H](O)CN3CCC4(CC3)Cc3cc(Cl)ccc3O4)c2N1 | 11 | 7.8 µL/min | 33.7 | 1260 | 7.1 | 600 |  |
| COc1ccc(NC(=O)NC2CC2)c(OC[C@@H](O)CN2CCC3(CC2)Cc2cc(F)ccc2O3)c1 |  |  | 133 | 90 | 2.2 |  |  |
| CNC(=O)Nc1ccc(OC)cc1OC[C@@H](O)CN1CCC2(CC1)Cc1cc(Cl)ccc1O2 |  |  | 71.2 | 447 | 4.5 |  |  |
| O=C(Nc1ccc(O)cc1OC[C@@H](O)CN1CCC2(CC1)Cc1cc(Cl)ccc1O2)NC1CC1 | 2.67 | 6.4 µL/min | < 10 | 50 | 0.89 |  |  |
| O=C1CCc2cccc(OC[C@@H](O)CN3CCC4(CC3)Cc3cc(Cl)ccc3O4)c2N1 | 16 | Unstable | 65 |  | 32 | 500 | Not Active |
| N[C@H](COc1cccc2ccc(=O)[nH]c12)CN1CCC2(CC1)Cc1cc(F)ccc1O2 |  |  | < 10 |  | 560 | 1200 | Not Active |
| O=C(Nc1ccccc1OC[C@@H](O)CN1CCC2(CC1)Cc1cc(Cl)ccc1O2)N1CCCC1 | 3.5 |  | > 200 |  | 1.4 |  |  |
| NC(=O)Nc1ccc(O)cc1OC[C@@H](O)CN1CCC2(CC1)Cc1cc(Cl)ccc1O2 | 0.5 | < 3.8 µL/min | < 10 | 1580 | 3.2 | > 8900 |  |
| Cc1cc2c(OC[C@@H](O)CN3CCC4(CC3)Cc3cc(Cl)ccc3O4)cccc2o1 |  |  | 15 |  | 160 |  | Not Active |
| CNC(=O)Nc1ccc(O)cc1OC[C@@H](O)CN1CCC2(CC1)Cc1cc(Cl)ccc1O2 | 9 | 5.4 µL/min | < 10 | 1760 | 1.3 | 4600 |  |
| CNC(=O)Nc1ccc(O)cc1OC[C@@H](O)CN1CCC2(CC1)Cc1cc(F)ccc1O2 |  | 10.7 µL/min | < 10 |  | 3.2 | 13100 |  |
| Cc1nc2c(OC[C@@H](O)CN3CCC4(CC3)Cc3cc(Cl)ccc3O4)cccc2s1 |  |  |  |  | 1300 |  | Not Active |
| CNC(=O)Nc1ccc(OC)cc1OC[C@@H](O)CN1CCC2(CC1)Cc1cc(F)ccc1O2 |  |  | 87.9 | 1780 | 13 |  |  |
| NC(=O)Nc1ccccc1OC[C@@H](O)CN1CCC2(CC1)Cc1cc(Cl)ccc1O2 | 14 | < 3 µL/min | 21.5 | 2110 | 6.7 | 400 |  |
